SMILES strings stand for the structures. A value given as a limit tells only on which side of the number the result lay.

One experiment concerns the target T1, human CYP11B2 (Homo sapiens, UniProt P19099).
T1 construct: expressed in transfected cells
T1 sequence (P19099 25-503): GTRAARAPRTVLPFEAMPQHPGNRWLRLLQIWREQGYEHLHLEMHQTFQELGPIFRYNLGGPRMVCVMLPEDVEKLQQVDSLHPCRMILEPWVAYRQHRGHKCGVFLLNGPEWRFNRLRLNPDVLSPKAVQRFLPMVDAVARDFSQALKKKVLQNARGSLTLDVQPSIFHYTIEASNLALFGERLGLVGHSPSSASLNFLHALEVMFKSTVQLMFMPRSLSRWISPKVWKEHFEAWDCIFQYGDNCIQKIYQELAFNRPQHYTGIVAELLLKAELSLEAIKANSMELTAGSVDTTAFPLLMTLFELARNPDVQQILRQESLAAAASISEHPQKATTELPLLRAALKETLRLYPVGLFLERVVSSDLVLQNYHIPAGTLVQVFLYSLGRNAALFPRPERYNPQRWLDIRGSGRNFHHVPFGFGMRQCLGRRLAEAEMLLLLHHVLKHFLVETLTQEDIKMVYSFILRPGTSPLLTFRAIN
Kind of experiment: IC50 vs CYP11B2 by aldosterone synthesis in V79 cells. The format is cell-based. Conditions: V79 cells expressing human CYP11B2, 750 nM DOC, aldosterone HTRF; test concentrations 0.5-10000 nM. Here is the method: (§1) Determination of IC50 vs CYP11B1/CYP11B2 by Measurement of Cortisol/Aldosterone Synthesis
(§2) This assay was performed in a standard 384-well plate design using cultured V79 cells stably expressing human CYP11B1 or human CYP11B2. Test compounds at 10 concentrations (for example, 10000, 3333.3, 1111.1, 370.4, 123.5, 41.2, 13.7, 4.6, 1.5 and 0.5 nM) were added in 384-well plate after the cell-seeding procedure. The incubation substrate contains 1500 nM RSS for CYP11B1 assay/750 nM DOC for CYP11B2 assay. The
(§3) Cortisol/Aldosterone production of cell culture supernatant was determined by Cortisol/Aldosterone HTRF kit after for about 15 hours incubation at RT (protect from light). IC50 values were calculated from the percent inhibition observed for each test compound at 10 concentrations.
(§4) The assay plate was read using Envision (Perkin Elmer, Waltham, Mass.) at 665 nm and 590 nm (using Filter Barcode of 217#, 205#; Mirror Barcode of 446#).
(§5) Data are analyzed using Assay Data Analyzer. All ratio data (665 nm/590 nm) are back calculated according to the standard curve, resulting in Cortisol/Aldosterone concentrations. IC50 values are reported as the Inflection Point (IP) of a four parameter fit of the titration data.
(§6) The following equation was used to calculate the % inhibition:
(§7) % Activity=100×{1−(Sample_back calculated Cortisol/Aldosterone concentration−LC_back calculated Cortisol/Aldosterone concentration)/(HC_back calculated Cortisol/Aldosterone concentration−LC_back calculated Cortisol/Aldosterone concentration)}
A general note: Time-resolved FRET reads energy transfer from a long-lived donor to a nearby acceptor.

In the next experiment the target is T2, CYP2D6 (Homo sapiens, UniProt P10635).
T2 construct: 0.1 mg/mL protein human liver microsomes (BD Gentest); tissue BD Gentest; host or cells: human liver microsomes
Kind of experiment: Cocktail CYP assay, dextromethorphan O-demethylation. The format is in vitro ADME. The note with it: human liver microsomes, 5 μM dextromethorphan; test concentrations up to 10 μM. Here is the method:
(§8) Determination of IC50 in a Cocktail Assay for CYPs 1A2, 2C9, 2C19, 2D6 and 3A4
(§9) This assay was performed in a standard 96-well plate design. IC50 values were calculated from the percent inhibition observed for each test compound at 6 concentrations (for example, 0.0032, 0.016, 0.08, 0.4, 2 and 10 μM). The incubation substrate mix contains 10 μM phenacetin (1A2), 5 μM diclofenac (2C9), 30 μM mephenyloin (2C19), 5 μM dextromethorphan (2D6) and 2 μM midazolam (3A4), 0.1 mg/mL protein human liver microsomes (BD Gentest), 1 mM NAPDH, 3.3 mM MgCl2 and 100 mM potassium phosphate buffer (pH 7.4). The production of the metabolite of each probe substrate was determined after incubation for 10 min at 37° C. Quantitation of the metabolite peak area ratio against an internal standard (tolbutamide) was determined by LC/MS/MS analysis following acetonitrile treatment of the incubations.
(§10) Samples were analyzed in the MRM mode with a SCIEX API-4000 mass spectrometer (Applied Biosystems, Foster City, Calif.), with a Shimadzu LC-20 AD pump (Shimadzu corporation, Kyoto, JP) and a CTC PAL autosampler (Agilent Technologies, Switzerland). A Phenomenex, Luna, […], 100 A, 2.00×30 mm HPLC column was used for the separation. The mobile phases were: (A) 0.1% formic acid in water and (B) 0.1% formic acid in acetonitrile. The binary gradient was as follows.
(§11) The peak area ratio of the analyte to the internal standard was used to quantify the metabolite. The values of peak area ratios in the presence of test compound were compared to those of maximum or minimum controls and were expressed as % inhibition by interpolating between the maximum and minimum peak area ratios. Incubations with no inhibitor were defined as the maxima.
as §6
(§12) [1−[(X−Low control)/(High control−Low control)]]*100
(§13) For the IC50 calculation, SigmaPlot was used to plot the mean % inhibition versus the test compound concentrations and for non-linear regression analysis of the data. Depending on the range of data points defining the inhibition curve, the data may have been fit to the 4-parameter logistic equation.
A general note: Liver microsomes are vesicles of endoplasmic reticulum, rich in cytochrome P450 enzymes.

The target of another experiment is T3, CYP2C9 (Homo sapiens, UniProt P11712).
T3 construct: 0.1 mg/mL protein human liver microsomes (BD Gentest); tissue BD Gentest; host or cells: human liver microsomes
Kind of experiment: Cocktail CYP assay, diclofenac 4'-hydroxylation. The format is in vitro ADME. The note with it: human liver microsomes, 5 μM diclofenac; test concentrations up to 10 μM. The protocol: as §8, §9, §10, §11, §6, §12, §13

The target of a further experiment is T4, CYP2C19 (Homo sapiens, UniProt P33261).
T4 construct: 0.1 mg/mL protein human liver microsomes (BD Gentest); tissue BD Gentest; host or cells: human liver microsomes
Kind of experiment: Cocktail CYP assay, mephenytoin 4'-hydroxylation. It counts as in vitro ADME. Conditions: human liver microsomes, 30 μM mephenytoin; test concentrations up to 10 μM. The protocol:
as §8, §9, §10, §11, §6, §12, §13

A further experiment has as its target T5, CYP1A2 (Homo sapiens, UniProt P05177).
T5 construct: 0.1 mg/mL protein human liver microsomes (BD Gentest); tissue BD Gentest; host or cells: human liver microsomes
T5 sequence (P05177 1-516): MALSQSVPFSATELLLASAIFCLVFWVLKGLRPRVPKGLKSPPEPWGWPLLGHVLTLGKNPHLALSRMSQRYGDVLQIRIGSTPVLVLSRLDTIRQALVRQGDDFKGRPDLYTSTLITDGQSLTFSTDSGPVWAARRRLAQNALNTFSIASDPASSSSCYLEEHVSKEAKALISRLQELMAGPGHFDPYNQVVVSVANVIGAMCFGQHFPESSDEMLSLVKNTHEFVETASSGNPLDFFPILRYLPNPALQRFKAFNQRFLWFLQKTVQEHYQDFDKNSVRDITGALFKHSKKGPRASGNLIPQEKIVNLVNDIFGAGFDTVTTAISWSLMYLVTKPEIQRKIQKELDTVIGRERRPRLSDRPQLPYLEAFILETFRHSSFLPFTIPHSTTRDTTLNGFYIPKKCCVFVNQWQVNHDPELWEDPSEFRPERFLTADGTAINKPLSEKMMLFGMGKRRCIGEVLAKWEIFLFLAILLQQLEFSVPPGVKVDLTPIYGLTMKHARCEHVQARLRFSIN
Kind of experiment: Cocktail CYP assay, phenacetin O-deethylation. It counts as in vitro ADME. The note with it: human liver microsomes, 10 μM phenacetin; test concentrations up to 10 μM. Here is the method: as §8, §9, §10, §11, §6, §12, §13

Another experiment addresses T6, human CYP11B1 (Homo sapiens, UniProt P15538).
T6 construct: expressed in transfected cells
T6 sequence (P15538 25-503): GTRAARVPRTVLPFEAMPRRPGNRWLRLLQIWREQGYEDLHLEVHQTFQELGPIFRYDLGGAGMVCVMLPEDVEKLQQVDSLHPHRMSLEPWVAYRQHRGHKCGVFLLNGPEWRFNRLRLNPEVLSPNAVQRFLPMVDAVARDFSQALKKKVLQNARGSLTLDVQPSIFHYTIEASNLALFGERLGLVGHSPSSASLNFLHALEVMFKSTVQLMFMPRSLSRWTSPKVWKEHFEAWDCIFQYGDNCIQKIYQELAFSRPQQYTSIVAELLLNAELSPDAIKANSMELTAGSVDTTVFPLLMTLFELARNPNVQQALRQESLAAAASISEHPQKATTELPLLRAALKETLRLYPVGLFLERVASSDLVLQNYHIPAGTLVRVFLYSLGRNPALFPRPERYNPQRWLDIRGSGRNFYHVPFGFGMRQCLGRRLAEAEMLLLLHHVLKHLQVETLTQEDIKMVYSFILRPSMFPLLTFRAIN
The experiment can be described thus: IC50 vs CYP11B1 by cortisol synthesis in V79 cells. It counts as cell-based. The note with it: V79 cells expressing human CYP11B1, 1500 nM RSS, cortisol HTRF; test concentrations 0.5-10000 nM. The protocol: as §1, §2, §3, §4, §5, §6, §7

T3 sequence (P11712 whole entry): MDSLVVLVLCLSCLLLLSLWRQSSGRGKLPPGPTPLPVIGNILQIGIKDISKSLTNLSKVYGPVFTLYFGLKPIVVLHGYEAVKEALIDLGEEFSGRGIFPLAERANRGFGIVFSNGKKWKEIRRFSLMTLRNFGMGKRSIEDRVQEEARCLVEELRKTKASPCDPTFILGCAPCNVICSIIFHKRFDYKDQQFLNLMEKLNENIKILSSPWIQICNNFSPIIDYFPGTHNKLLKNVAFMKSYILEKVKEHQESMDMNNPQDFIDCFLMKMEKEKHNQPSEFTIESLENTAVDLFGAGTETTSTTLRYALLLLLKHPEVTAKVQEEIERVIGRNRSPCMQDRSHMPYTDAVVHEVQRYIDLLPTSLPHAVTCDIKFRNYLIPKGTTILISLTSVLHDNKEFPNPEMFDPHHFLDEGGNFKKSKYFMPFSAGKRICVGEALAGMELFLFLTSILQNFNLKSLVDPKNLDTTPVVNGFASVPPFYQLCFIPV
T2 sequence (P10635 whole entry): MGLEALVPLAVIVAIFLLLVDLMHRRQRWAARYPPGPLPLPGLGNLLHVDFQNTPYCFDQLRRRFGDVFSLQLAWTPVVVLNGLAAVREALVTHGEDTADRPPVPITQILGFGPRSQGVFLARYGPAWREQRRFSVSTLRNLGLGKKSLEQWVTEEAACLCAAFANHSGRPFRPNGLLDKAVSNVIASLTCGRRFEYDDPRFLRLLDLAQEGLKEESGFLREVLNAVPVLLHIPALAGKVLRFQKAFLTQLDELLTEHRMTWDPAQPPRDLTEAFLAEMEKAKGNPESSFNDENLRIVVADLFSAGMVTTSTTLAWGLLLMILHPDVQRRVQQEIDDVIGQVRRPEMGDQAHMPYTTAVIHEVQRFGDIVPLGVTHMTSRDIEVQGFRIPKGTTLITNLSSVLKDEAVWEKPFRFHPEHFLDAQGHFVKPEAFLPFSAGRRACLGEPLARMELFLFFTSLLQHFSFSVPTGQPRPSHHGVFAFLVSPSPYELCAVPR
T4 sequence (P33261 whole entry): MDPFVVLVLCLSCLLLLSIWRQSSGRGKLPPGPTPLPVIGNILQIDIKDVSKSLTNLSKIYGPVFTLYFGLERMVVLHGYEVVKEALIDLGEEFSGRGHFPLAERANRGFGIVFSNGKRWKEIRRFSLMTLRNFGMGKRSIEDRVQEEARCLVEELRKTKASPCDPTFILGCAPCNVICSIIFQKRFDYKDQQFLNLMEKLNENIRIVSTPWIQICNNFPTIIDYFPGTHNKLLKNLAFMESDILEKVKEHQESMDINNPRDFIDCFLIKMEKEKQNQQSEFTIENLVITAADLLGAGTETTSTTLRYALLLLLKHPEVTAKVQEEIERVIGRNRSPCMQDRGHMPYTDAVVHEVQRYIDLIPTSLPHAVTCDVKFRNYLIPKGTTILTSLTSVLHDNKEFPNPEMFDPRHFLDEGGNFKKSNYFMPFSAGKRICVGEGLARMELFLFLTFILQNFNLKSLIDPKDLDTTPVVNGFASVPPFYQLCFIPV

For the compound `C[C@H](c1ccc(F)cc1)n1cncc1CN1CCN(S(=O)(=O)c2cnc(N3CC[C@@H](N)[C@H](F)C3)s2)CC1` [Compound 12], the IC50 at human CYP11B2 is 1.69 µM; at CYP2D6 it was 2.85 µM; on CYP2C9 it was 1.75 µM; on CYP2C19 it was more than 10 µM; against CYP1A2, more than 10 µM; against human CYP11B1 it was 1.46 µM.

Usually IC50 stands for the midpoint of a concentration-inhibition curve. Low values mean inhibition by little substance, high ones a need for much substance.

These data come from patent publication US20140005103A1, “SULFONAMIDE DERIVATIVES AND METHODS OF USE THEREOF FOR IMPROVING THE PHARMACOKINETICS OF A DRUG” (Merck, Sharp & Dohme Corp., priority 2012, published 2014).
